Experimental data taken from PMC10111413 (ACS Infectious Diseases, 2023).
Converted amounts (≈) assume the structure as drawn. Where a SMILES comes first, the peptide text is derived from it. Bridges are numbered along the chain shown (N, C = ends). [ ]: non-standard residue; d: D form. The star is where a group is joined. ξ: configuration not given here. Hexanoyl(4ξ-Me) = CCC(C)CCC(=O)*; dOrn = NCCC[C@@H](N)C(=O)O; Orn = NCCC[C@H](N)C(=O)O; Dap = NC[C@H](N)C(=O)O

Key:
A. baumannii BV95 = type: cell-based; conditions: BV95, 18 h
Protocol: (§1) VIII. Antimicrobial testing
(§2) Table S2. Minimum inhibitory concentrations (MICs) determined against panel of previously characterized colistin-resistant A. baumannii clinical isolates5
(§3) Strain Relacidine A (3a) Relacidine B (4a) Relacidamide (5) Colistin […]
(§4) aMIC values given in µg/ml.
(§5) All minimum inhibitory concentrations were determined according to Clinical and Standards Laboratory Institute (CLSI) guidelines. Blood agar plates were inoculated from glycerol stocks of the different A. baumannii strains used and then incubated for 16 h at 37 °C . Individually grown colonies were subsequently used to inoculate 5 mL aliquots of TSB that were then incubated at 37 °C. In parallel, the lipopeptide antibiotics DMSO stocks to be assessed were serially diluted with cation-adjusted MHB in polypropylene 96-well plates (50 µL in each well). Colistin sulfate stocks were dissolved in water before being diluted with cation-adjusted MHB. The A. baumannii inoculated TSB aliquots were incubated until an OD600 of around 0.5 was reached. The bacterial suspensions were then diluted with cation-adjusted MHB (2 x 10^5 CFU mL-1) and added to the microplates containing the test compounds (50 µL to each well). The well-plates were sealed with an adhesive membrane and after 18 h of incubation at 37 °C visually inspected for bacterial growth. MIC values reported are based on three technical replicates and defined as the lowest concentration of the compound that prevented visible

A. baumannii HUMC1 = type: cell-based; conditions: HUMC1, 18 h
Protocol: as §1, §2, §3, §4, §5

A. baumannii NCTC 13304 = type: cell-based; conditions: NCTC 13304, 18 h
Protocol: as §1, §2, §3, §4, §5

A. baumannii BV172 = type: cell-based; conditions: BV172, 18 h
Protocol: as §1, §2, §3, §4, §5

A. baumannii NCTC 13420 = type: cell-based; conditions: NCTC 13420, 18 h
Protocol: as §1, §2, §3, §4, §5

A. baumannii BV173 = type: cell-based; conditions: BV173, 18 h
Protocol: as §1, §2, §3, §4, §5

A. baumannii LAC-4 = type: cell-based; conditions: LAC-4, 18 h
Protocol: as §1, §2, §3, §4, §5

A. baumannii ATCC 17978 = type: cell-based; conditions: ATCC 17978, 18 h
Protocol: as §1, §2, §3, §4, §5

A. baumannii BV94 = type: cell-based; conditions: BV94, 18 h
Protocol: as §1, §2, §3, §4, §5

G. mellonella larvae = conditions: in vivo
Text: Given the promising in vitro activity of relacidamide (5), along with its high serum stability, low hemolytic activity, and ease of synthesis, we further evaluated its efficacy in an established in vivo infection model using G. mellonella larvae. The G. mellonella infection model has gained popularity in recent years and provides a convenient method to assess the in vivo effectiveness and toxicity of novel antibiotics.[15],[16] […] The larvae were first injected with either vehicle (PBS) or A. baumannii BV94 suspension in the right second proleg. The moth larvae were then injected in the left second proleg with either PBS (untreated), colistin at 100 mg/kg or 200 mg/kg, or relacidamide (5) at 100 mg/kg or 200 mg/kg. The G. mellonella larvae were then incubated for 72 h, and their survival was assessed twice per day. Relacidamide (5) induced 50% survival after 72 h at 100 mg/kg and 70% survival at 200 mg/kg, whereas none of the larvae treated with colistin survived, and only 10% of the untreated larvae survived after 72 h.

P. aeruginosa PAO1 = type: cell-based; conditions: PAO1, 18 h
Protocol: (§6) The antibacterial activities of relacidine A (3a) and B (4a), along with diastereomers 3b and 4b–d and relacidamide (5), were assessed using a standard microbroth dilution assay to establish minimum inhibitory concentration (MIC) values against a panel of Gram-negative bacteria (Table 1). The MIC values measured for synthetic relacidine A (3a) and B (4a) agree well with those previously published.[9] […] Relacidine A (3a) and B (4a), as well as relacidamide (5), were further tested against a panel of colistin-resistant A. baumannii clinical isolates, which confirmed their ability to prevent the growth of colistin-resistant isolates (Supplemental Table S2). […] Also of interest was the finding that while relacidine B (4a) induced <1% hemolysis, a substitution of either the L-Ala or L-Ser to D-Ala or D-Ser increased hemolytic activity to 8–12%. […] The greater hydrolytic stability of relacidine B would appear to be attributable to the increased steric bulk of the Ala side chain next to the ester linkage (compared with the methylene of Gly in relacidine A), which may hinder the nucleophilic attack of water at the ester carbonyl.
(§7) Colistin sulfate was purchased from Activate Scientific. Kanamycin monosulfate was purchased from MP Biomedicals. E. coli ATCC 25922, S. aureus USA300 (ATCC BAA1717), and K. pneumoniae ATCC 13883 belong to the American Type Culture Collection (ATCC). P. aeruginosa PAO1 was kindly provided by L.H.C. Quarles Van Ufford of Utrecht University, Utrecht, The Netherlands. E. coli ATCC 25922 MCR-1 was transfected in-house using the pGDP2-MCR1 plasmid kindly provided by Yong-Xin Li of The University of Hong Kong, Hong Kong, China. Sheep blood agar plates (ref. PB5039A) were purchased from Thermo Scientific. Tryptic soy broth (ref. 02-200-500) was purchased from Scharlab. Mueller-Hinton broth (ref. X927.1) was purchased from Carl Roth. Polypropylene 96-wells plates (ref. 3879) were purchased from Corning.
(§8) MICs were determined according to Clinical and Standards Laboratory Institute (CLSI) guidelines. Blood agar plates were inoculated with glycerol stocks of E. coli ATCC 25922, K. pneumoniae ATCC 13883, P. aeruginosa PAO1, and S. aureus USA300. The inoculated agar plates were then incubated for 16 h at 37 °C. Individually grown colonies were subsequently used to inoculate 5 mL aliquots of tryptic soy broth (TSB) that were then incubated at 37 °C with shaking at 220 rpm. E. coli 25922 MCR-1 glycerol stock was used to inoculate 5 mL of TSB supplemented with kanamycin that was then incubated for 16 h at 37 °C with shaking at 220 rpm. The next day, the culture was diluted 100-fold in TSB supplemented with kanamycin and incubated at 37 °C with shaking at 220 rpm. In parallel, the lipopeptide antibiotic DMSO stocks to be assessed were serially diluted with Mueller Hinton broth (MHB) in polypropylene 96-well plates (50 μL in each well). Colistin sulfate stocks were dissolved in water before being diluted with MHB. Aliquots of the inoculated TSB were incubated until an OD600 of around 0.5 was reached. The bacterial suspensions were then diluted with MHB (2 × 10^5 cfu mL^–1) and added to the microplates containing the test compounds (50 μL to each well). The well plates were sealed with an adhesive membrane, and after 18 h of incubation at 37 °C with shaking at 600 rpm, the wells were visually inspected for bacterial growth. MIC values reported are based on three technical replicates and defined as the lowest concentration of the compound that prevented visible growth of bacteria.

S. aureus USA300 = type: cell-based; conditions: USA300, 18 h
Protocol: as §6, §7, §8

E. coli ATCC 25922 = type: cell-based; conditions: ATCC 25922, 18 h
Protocol: as §6, §7, §8

K. pneumoniae ATCC 13883 = type: cell-based; conditions: ATCC 13883, 18 h
Protocol: as §6, §7, §8

E. coli ATCC 25922 mcr-1 = type: cell-based; conditions: CLSI microbroth dilution, Mueller Hinton broth, 18 h at 37 °C, visual read-out, three technical replicates; mcr-1 colistin resistance plasmid
Protocol: as §6, §7, §8

## CCC(C)CCC(=O)N[C@H](CO)C(=O)N[C@H](Cc1ccc(O)cc1)C(=O)N[C@H](Cc1c[nH]c2ccccc12)C(=O)N[C@H](CCCN)C(=O)N[C@@H](CCCN)C(=O)NCC(=O)N[C@H](CCCN)C(=O)N[C@@H](Cc1c[nH]c2ccccc12)C(=O)N[C@H]1CNC(=O)CNC(=O)[C@H](CO)NC(=O)CNC(=O)[C@H]([C@@H](C)CC)NC1=O (stereo partly drawn) [compound 5, Relacidamide] ({Hexanoyl(4ξ-Me)}-[dS][dY][dW][dOrn][Orn]G[dOrn]W[Dap]IGSG; lactam 9-C)
A. baumannii BV95
  MIC A. baumannii BV95: 8 µg/mL (≈ 5.21 µM)
A. baumannii HUMC1
  MIC A. baumannii HUMC1: 8 µg/mL (≈ 5.21 µM)
A. baumannii NCTC 13304
  MIC A. baumannii NCTC 13304: 4 µg/mL (≈ 2.61 µM)
A. baumannii BV172
  MIC A. baumannii BV172: 16 µg/mL (≈ 10.4 µM)
A. baumannii NCTC 13420
  MIC A. baumannii NCTC 13420: 16 µg/mL (≈ 10.4 µM)
A. baumannii BV173
  MIC A. baumannii BV173: 16 µg/mL (≈ 10.4 µM)
A. baumannii LAC-4
  MIC A. baumannii LAC-4: 8 µg/mL (≈ 5.21 µM)
A. baumannii ATCC 17978
  MIC A. baumannii ATCC 17978: 4 µg/mL (≈ 2.61 µM)
A. baumannii BV94
  MIC A. baumannii BV94: 8 µg/mL (≈ 5.21 µM)
G. mellonella larvae
  tolerability in G. mellonella larvae: well tolerated up to the highest tested dose
P. aeruginosa PAO1
  MIC P. aeruginosa PAO1: 8 µg/mL (≈ 5.21 µM)
S. aureus USA300
  MIC S. aureus USA300: >32 µg/mL
E. coli ATCC 25922
  MIC E. coli ATCC 25922: 2 to 4 µg/mL
K. pneumoniae ATCC 13883
  MIC K. pneumoniae ATCC 13883: 4 µg/mL (≈ 2.61 µM)
E. coli ATCC 25922 mcr-1
  MIC E. coli ATCC 25922 mcr-1: 2 to 4 µg/mL
